Like-named read-outs stand apart in the source and are kept apart here. Where a SMILES comes first, the peptide text is derived from it. Where no end group is shown, it is not given here. [ ]: non-standard residue; d: D form. Cha = N[C@@H](CC1CCCCC1)C(=O)O
Key:
[1] = Circular dichroism spectroscopy, helical residues per peptide chain; type: physicochemical; conditions: calculated from [θ]222
Summary of the method: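 CD spectra recorded at 20 °C, four scans averaged; peptide concentration checked by A280 with the single-Trp extinction coefficient of 5700 M^−1. Helical residues per chain calculated as −[θ]222×30/28,000 from mean residue ellipticity at 222 nm.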

ROS 17/2.8 cells = biological target: T1, ROS 17/2.8 cells (Rattus norvegicus, UniProt P25961); conditions: position-20 substitutions in PTH(1-31)NH2; cited from earlier work
T1 construct: ROS 17/2.8 cells are rat osteosarcoma cells and express the endogenous PTHR; host or cells: ROS 17/2.8 cells
T1 sequence (P25961 27-591): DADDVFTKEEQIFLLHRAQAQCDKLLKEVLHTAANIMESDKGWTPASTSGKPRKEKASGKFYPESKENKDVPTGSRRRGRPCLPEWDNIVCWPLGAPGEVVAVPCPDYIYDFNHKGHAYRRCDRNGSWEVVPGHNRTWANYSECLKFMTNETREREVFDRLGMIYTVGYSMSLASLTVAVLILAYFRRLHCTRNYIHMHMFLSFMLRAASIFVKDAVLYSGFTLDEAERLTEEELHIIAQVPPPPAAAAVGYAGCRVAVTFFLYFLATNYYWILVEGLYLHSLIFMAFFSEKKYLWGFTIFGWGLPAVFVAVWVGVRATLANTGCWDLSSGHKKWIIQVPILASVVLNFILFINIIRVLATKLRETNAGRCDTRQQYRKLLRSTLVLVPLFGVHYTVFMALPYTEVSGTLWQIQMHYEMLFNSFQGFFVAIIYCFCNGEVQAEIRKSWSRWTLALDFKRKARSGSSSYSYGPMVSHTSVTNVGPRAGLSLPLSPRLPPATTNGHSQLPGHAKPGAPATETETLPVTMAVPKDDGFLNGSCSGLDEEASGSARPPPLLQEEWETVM

PTHR-delNt = biological target: T2, PTHR-delNt (Homo sapiens, UniProt Q03431, DEL24-181); experiment: Competition binding in COS-7 cell membranes with 125I-[Aib1,3,M]PTH(1-15)NH2 tracer; conditions: COS-7 membranes cotransfected with negative-dominant Gαs, read-out: PTHR-delNT (COS-7) IC50
T2 construct: expressed in transfected cells; host or cells: COS-7 cells, transient co-transfection; membranes prepared
T2 sequence (Q03431 with tags, fused parts or gaps DEL24-181): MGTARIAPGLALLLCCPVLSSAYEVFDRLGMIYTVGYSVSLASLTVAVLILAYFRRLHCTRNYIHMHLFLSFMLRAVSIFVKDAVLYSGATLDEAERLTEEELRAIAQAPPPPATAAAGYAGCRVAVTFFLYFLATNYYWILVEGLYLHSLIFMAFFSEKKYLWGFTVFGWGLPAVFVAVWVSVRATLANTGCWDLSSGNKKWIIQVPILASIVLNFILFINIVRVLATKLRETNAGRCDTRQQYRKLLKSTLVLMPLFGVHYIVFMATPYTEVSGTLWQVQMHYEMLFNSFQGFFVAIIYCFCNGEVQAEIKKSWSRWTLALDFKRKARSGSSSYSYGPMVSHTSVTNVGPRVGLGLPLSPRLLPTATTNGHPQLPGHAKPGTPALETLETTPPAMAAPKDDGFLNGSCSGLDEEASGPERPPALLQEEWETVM
Summary of the method: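 Membranes (20 µg/well) from COS-7 cells co-transfected with human PTHR lacking residues 24–181 plus dominant-negative Gαs, incubated 90 min at 21 °C with 125I-[Aib1,3,M]PTH(1-15)NH2 and unlabeled peptide (3×10^−9 to 1×10^−5 M), then filtered and gamma-counted. Non-specific binding with 1×10^−6 M [Aib1,3,M]PTH(1-15)NH2; IC50 by four-parameter logistic fit, extrapolated to reference maximal inhibition where incomplete.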

[2] = [Ala1,Arg19]hPTH(1-31)NH2 analogs

Compound	CD helical residues ([1]; hPTH(1-31)NH2 analogs)	reduction of cAMP-stimulating potency (ROS 17/2.8 cells) [fold]	IC50 (PTHR-delNt; hPTH(1-31)NH2 analogs) [µM]	CD helical residues [1, 2]	IC50 (PTHR-delNt; [2]) [µM]
CC[C@H](C)[C@H](NC(=O)[C@H](CCC(=O)O)NC(=O)[C@H](CO)NC(=O)[C@@H](NC(=O)[C@@H](N)CO)C(C)C)C(=O)N[C@@H](CCC(N)=O)C(=O)N[C@@H](CC(C)C)C(=O)N[C@@H](CCSC)C(=O)N[C@@H](Cc1c[nH]cn1)C(=O)N[C@@H](CC(N)=O)C(=O)N[C@@H](CC(C)C)C(=O)NCC(=O)N[C@@H](CCCCN)C(=O)N[C@@H](Cc1c[nH]cn1)C(=O)N[C@@H](CC(C)C)C(=O)N[C@@H](CC(N)=O)C(=O)N[C@@H](CO)C(=O)N[C@@H](CCSC)C(=O)N[C@@H](CCC(=O)O)C(=O)N[C@@H](CCCNC(N)=O)C(=O)N[C@H](C(=O)N[C@@H](CCC(=O)O)C(=O)N[C@@H](Cc1c[nH]c2ccccc12)C(=O)N[C@@H](CC(C)C)C(=O)N[C@@H](CCCNC(=N)N)C(=O)N[C@@H](CCCCN)C(=O)N[C@@H](CCCCN)C(=O)N[C@@H](CC(C)C)C(=O)N[C@@H](CCC(N)=O)C(=O)N[C@@H](CC(=O)O)C(=O)N[C@H](C(N)=O)C(C)C)C(C)C [Arg^20→Cit]	9	8	10.6	–	–
CC[C@H](C)[C@H](NC(=O)[C@H](CCC(=O)O)NC(=O)[C@H](CO)NC(=O)[C@@H](NC(=O)[C@H](C)N)C(C)C)C(=O)N[C@@H](CCC(N)=O)C(=O)N[C@@H](CC(C)C)C(=O)N[C@@H](CCSC)C(=O)N[C@@H](Cc1c[nH]cn1)C(=O)N[C@@H](CC(N)=O)C(=O)N[C@@H](CC(C)C)C(=O)NCC(=O)N[C@@H](CCCCN)C(=O)N[C@@H](Cc1c[nH]cn1)C(=O)N[C@@H](CC(C)C)C(=O)N[C@@H](CC(N)=O)C(=O)N[C@@H](CO)C(=O)N[C@@H](CCSC)C(=O)N[C@@H](CCCNC(=N)N)C(=O)N[C@@H](CCCNC(=N)N)C(=O)N[C@H](C(=O)N[C@@H](CCC(=O)O)C(=O)N[C@@H](Cc1c[nH]c2ccccc12)C(=O)N[C@@H](CC(C)C)C(=O)N[C@@H](CCCNC(=N)N)C(=O)N[C@@H](CCCCN)C(=O)N[C@@H](CCCCN)C(=O)N[C@@H](CC1CCCCC1)C(=O)N[C@@H](CCC(N)=O)C(=O)N[C@@H](CC(=O)O)C(=O)N[C@H](C(N)=O)C(C)C)C(C)C [Leu^28→Cha] (H-AVSEIQLMHNLGKHLNSMRRVEWLRKK[Cha]QDV-NH2; N-terminus assumed)	–	–	–	8	0.226 ± 0.039
SVSEIQLMHNLGKHLNSAERVEWLRKKLQDV-NH2 [Met^18→Ala]	10	–	8.8	–	–

— patent publication US8143374B2, “Polypeptide derivatives of parathyroid hormone (PTH)” (The General Hospital Corporation, priority 2006, dated 2012)
